The record followed here is patent US20100120858A1, “Piperidine Derivatives” (Pfizer Inc., priority 2006, published 2010).

What is called pKi is −log10 of the Ki, conventionally taken in molar units.

pKi: −log10 of the molar value. Structures can show the parent of a compound that is named as a salt.

In assay [1] the target is human norepinephrine transporter (Homo sapiens, UniProt P23975). Briefly: Human norepinephrine (hNET) receptor binding, [125I]-RTI-55. The following applies: membranes of HEK-293 cells transfected with human norepinephrine transporter cDNA; 50 pM [125I]-RTI-55; IC50 converted by Cheng-Prusoff. As to the method: Cell pastes of human embryonic kidney 293 (HEK-293) cells transfected with a human norepinephrine transporter cDNA were prepared. The cell pastes were resuspended in 400 to 700 mL of Krebs-N-2-hydroxyethylpiperazine-N′-2-ethanesulfonic acid (HEPES) assay buffer (25 mM HEPES, 122 mM NaCl, 3 mM KCl, 1.2 mM MgSO4, 1.3 mM CaCl2, and 11 mM glucose, pH 7.4) with a Polytron homogenizer at setting 7 for 30 seconds. Aliquots of membranes (5 mg/mL protein) were stored in liquid nitrogen until used.
Sequence of human norepinephrine transporter (P23975 whole entry): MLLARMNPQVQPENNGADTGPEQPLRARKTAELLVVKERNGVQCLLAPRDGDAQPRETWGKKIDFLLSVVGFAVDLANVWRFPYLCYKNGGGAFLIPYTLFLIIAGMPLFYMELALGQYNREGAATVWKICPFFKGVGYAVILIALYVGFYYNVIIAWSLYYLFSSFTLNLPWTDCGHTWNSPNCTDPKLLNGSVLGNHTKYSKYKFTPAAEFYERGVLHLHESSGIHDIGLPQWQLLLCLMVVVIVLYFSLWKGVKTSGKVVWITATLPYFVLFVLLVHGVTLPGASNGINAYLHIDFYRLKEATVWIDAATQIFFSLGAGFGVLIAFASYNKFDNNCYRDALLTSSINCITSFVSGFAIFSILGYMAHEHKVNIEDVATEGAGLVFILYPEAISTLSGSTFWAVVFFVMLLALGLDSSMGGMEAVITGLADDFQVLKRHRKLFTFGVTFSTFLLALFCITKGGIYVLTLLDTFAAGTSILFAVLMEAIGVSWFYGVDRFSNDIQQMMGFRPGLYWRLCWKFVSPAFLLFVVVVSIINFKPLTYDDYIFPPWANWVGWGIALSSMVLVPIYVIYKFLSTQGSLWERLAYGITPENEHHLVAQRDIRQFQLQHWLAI
The binding assay was set up in Beckman deep-well polypropylene plates with a total volume of 250 μL containing: test compound (concentration of 10^−5M to 10^−12M), cell membranes, and 50 pM [^125I]-RTI-55 ([^125I]-3 beta-(4-iodophenyl)tropan-2 beta-carboxylic acid methyl ester) (Perkin Elmer, NEX-272; specific activity 2200 Ci/mmol). The reaction was incubated by gentle agitation for 90 minutes at room temperature and was terminated by filtration through Whatman GF/C filter plates using a Brandel 96-well plate harvester. Scintillation fluid (100 μL) was added to each well, and bound [^125I]-RTI-55 was determined using a Wallac Trilux Beta Plate Counter. Test compounds were run in duplicate, and specific binding was defined as the difference between binding in the presence and absence of 10 μM desipramine.
Excel and GraphPad Prism software were used for data calculation and analysis. IC50 values were converted to Ki values using the Cheng-Prusoff equation. The Ki values (nM) for the hNET are reported below in Table 13.

Assay [2] has as its target human serotonin transporter (Homo sapiens, UniProt P31645). The assay is described as follows: Human serotonin (hSERT) receptor binding, [125I]-RTI-55. The following applies: membranes of HEK-293 cells transfected with human serotonin transporter cDNA, IC50 converted by Cheng-Prusoff. The method, then: Cell pastes of HEK-293 cells transfected with a human serotonin transporter cDNA were prepared. The cell pastes were resuspended in 400 to 700 ml of Krebs-HEPES assay buffer (25 mM HEPES, 122 mM NaCl, 3 mM KCl, 1.2 mM MgSO4, 1.3 mM CaCl2, and 11 mM glucose, pH 7.4) with a Polytron homogenizer at Setting 7 for 30 seconds. Aliquots of membranes (˜2.5 mg/mL protein) were stored in liquid nitrogen until used.
Assays were set up in FlashPlates pre-coated with 0.1% polyethyleneimine (PEI) in a total volume of 250 μL containing: test compound (concentration 10^−5M to 10^−12M), cell membranes, and […] [^125I]-RTI-55 (Perkin Elmer, NEX-272; specific activity 2200 Ci/mmol). The reaction was incubated and gently agitated for 90 minutes at room temperature, and terminated by removal of assay volume. Plates were covered, and bound [^125I]-RTI-55 was determined using a Wallac Trilux Beta Plate Counter. Test compounds were run in duplicate, and specific binding was defined as the difference between binding in the presence and absence of 10 μM citalopram.
Excel and GraphPad Prism software were used for data calculation and analysis. IC50 values were converted to Ki values using the Cheng-Prusoff equation.

Sequence of human serotonin transporter (P31645 whole entry): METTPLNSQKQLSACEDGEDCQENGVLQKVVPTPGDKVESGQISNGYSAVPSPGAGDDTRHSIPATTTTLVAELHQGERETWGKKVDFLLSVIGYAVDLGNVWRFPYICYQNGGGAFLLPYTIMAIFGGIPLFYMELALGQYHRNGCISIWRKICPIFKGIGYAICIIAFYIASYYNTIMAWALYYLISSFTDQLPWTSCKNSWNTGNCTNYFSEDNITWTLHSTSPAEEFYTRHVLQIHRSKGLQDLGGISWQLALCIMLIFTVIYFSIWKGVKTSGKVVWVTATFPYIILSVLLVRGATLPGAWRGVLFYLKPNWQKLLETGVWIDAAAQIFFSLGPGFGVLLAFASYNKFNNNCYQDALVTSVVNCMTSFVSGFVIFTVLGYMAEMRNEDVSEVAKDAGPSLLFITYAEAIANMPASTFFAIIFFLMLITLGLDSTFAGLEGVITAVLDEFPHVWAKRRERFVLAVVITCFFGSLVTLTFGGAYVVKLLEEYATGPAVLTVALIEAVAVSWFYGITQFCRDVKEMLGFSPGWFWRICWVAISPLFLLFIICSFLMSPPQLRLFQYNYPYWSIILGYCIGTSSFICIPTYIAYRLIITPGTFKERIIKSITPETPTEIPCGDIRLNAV

`c1ccc(Oc2ncccc2OC[C@H]2CCCNC2)cc1` [Example 93, (S)-2-phenoxy-3-(piperidin-3-ylmethoxy)-pyridine fumaric acid]: the pKi was 8.30 in assay [1] and 5.12 in assay [2].
In the case of `Clc1ccc(Oc2ncccc2OC[C@H]2CCCNC2)cc1Cl` [Example 64, (S)-2-(3,4-dichloro-phenoxy)-3-(piperidin-3-ylmethoxy)-pyridine fumaric acid], the pKi in assay [1] is 7.77; in assay [2], 6.07.
Take `COc1cc(F)ccc1Oc1nc(C)ccc1OC[C@H]1CCCNC1` [Example 28, (S)-2-(4-fluoro-2-methoxy-phenoxy)-6-methyl-3-(piperidin-3-ylmethoxy)-pyridine fumaric acid]: the pKi is 8.21 in assay [1] and 6.52 in assay [2].
As for `Cc1ccc(OC[C@H]2CCCNC2)c(Oc2ccccc2C)n1` [Example 5, (S)-2-(2-methyl-phenoxy)-6-methyl-3-(piperidin-3-ylmethoxy)-pyridine fumaric acid], the values for the pKi in assay [1] and in assay [2] were 8.08 and 5.55, respectively.
For `CCOc1ccccc1OC[C@H]1CCCNC1` [Example 100, (S)-3-(2-ethoxy-phenoxymethyl)-piperidine fumaric acid], the results for the pKi in assay [1] and in assay [2] were 7.48 and 5.59, respectively.
Take `CC[C@H](Oc1cccnc1OCC(C)C)[C@H]1CCCNC1` [Example 87, (S,S)-2-isobutoxy-3-(1-piperidin-3-yl-propoxy)-pyridine fumaric acid]: the results for the pKi in assay [1] and in assay [2] were 8.15 and 6.46, respectively.
On to `Fc1ccc(Oc2ncccc2OC(c2ccccc2)C2CCCNC2)cc1` (single isomer, unassigned; stereoisomer b) [Example 89, 2-(4-fluoro-phenoxy)-3-[((R or S)-phenyl)-((S)-piperidin-3-yl)-methoxy]-pyridine fumaric acid, stereoisomer B], for which the pKi in assay [1] was 7.37; in assay [2], 6.23.
Take `N#Cc1ccc(Oc2ncccc2OC[C@H]2CCCNC2)cc1F` [Example 61, (S)-2-fluoro-4-[3-(piperidin-3-ylmethoxy)-pyridin-2-yloxy]-benzonitrile fumaric acid]: the pKi in assay [1] was 6.85; in assay [2], less than 5.00.
The like results for `COc1cc(F)ccc1Oc1cc(C(F)(F)F)ccc1OC[C@H]1CCCNC1` [Example 37, (S)-3-[2-(4-fluoro-2-methoxy-phenoxy)-4-trifluoromethyl-phenoxymethyl]-piperidine fumaric acid] were, in that order, 7.11 and 7.66.
Regarding `C[C@H](Oc1ccccc1OCC1CCC1)[C@H]1CCCNC1` [Example 110, (S)-3-[(S)-1-(2-cyclobutylmethoxy-phenoxy)-ethyl]-piperidine oxalic acid], the pKi in assay [1] was 8.52; in assay [2], 6.38.
For the compound `COc1cc(Cl)ccc1Oc1cc(F)ccc1OC[C@H]1CCCNC1` [Example 36, (S)-3-[2-(4-chloro-2-methoxy-phenoxy)-4-fluoro-phenoxymethyl]-piperidine fumaric acid], the pKi in assay [1] was 6.08; in assay [2], 6.96.
`Fc1ccc(Oc2ncccc2OC[C@H]2CCCNC2)cc1` [Example 53, (S)-2-(4-fluoro-phenoxy)-3-(piperidin-3-ylmethoxy)-pyridine fumaric acid]: the pKi in assay [1] was 8.52; in assay [2], 5.15.
The like results for `Fc1ccc(Oc2c(F)cccc2OC[C@H]2CCCNC2)cc1` [Example 98, (S)-3-[3-fluoro-2-(4-fluoro-phenoxy)-phenoxymethyl]-piperidine trifluoroacetic acid] were, in that order, 9.00 and 5.89.
The like results for `CCOc1ncccc1OC(c1ccccc1)C1CCCNC1` (single isomer, unassigned; stereoisomer a) [Example 90, 2-ethoxy-3-[((R or S)-phenyl)-((S)-piperidin-3-yl)-methoxy]-pyridine fumaric acid, stereoisomer A] were, in that order, 8.70 and 7.15.
`Cc1ccc(OC[C@H]2CCCNC2)c(Oc2ccc(Cl)c(F)c2)n1` [Example 31, (S)-2-(4-chloro-3-fluoro-phenoxy)-6-methyl-3-(piperidin-3-ylmethoxy)-pyridine fumaric acid]: the pKi in assay [1] was 8.08; in assay [2], 7.00.
For the compound `Cc1ccc(OC[C@H]2CCCNC2)c(Oc2ccc(C(C)C)cc2)n1` [Example 20, (S)-2-[4-(1-methyl-ethyl)-phenoxy]-6-methyl-3-(piperidin-3-ylmethoxy)-pyridine fumaric acid], the pKi in assay [1] is 5.32; in assay [2], 5.62.
As to `CCOc1ncccc1O[C@@H](CC)[C@H]1CCCNC1` [Example 86, (S,S)-2-ethoxy-3-(1-piperidin-3-yl-propoxy)-pyridine fumaric acid], the pKi is 7.89 in assay [1] and 6.15 in assay [2].
The like results for `COc1cc(C#N)ccc1Oc1ncccc1OC[C@H]1CCCNC1` [Example 62, (S)-3-methoxy-4-[3-(piperidin-3-ylmethoxy)-pyridin-2-yloxy]-benzonitrile fumaric acid] were, in that order, 7.17 and less than 5.00.
As for `COc1cccc(F)c1Oc1nc(C)ccc1OC[C@H]1CCCNC1` [Example 21, (S)-2-(2-fluoro-6-methoxy-phenoxy)-6-methyl-3-(piperidin-3-ylmethoxy)-pyridine fumaric acid], the pKi in assay [1] was 8.31; in assay [2], 7.14.
Regarding `CC(C)CCOc1ccccc1O[C@@H](C)[C@H]1CCCNC1` [Example 112, (S)-3-{(S)-1-[2-(3-methyl-butoxy)-phenoxy]-ethyl}-piperidine oxalic acid], the results for the pKi in assay [1] and in assay [2] were 7.80 and 6.10, respectively.
Take `Cc1ccc(OC[C@H]2CCCNC2)c(Oc2ccc(F)cc2C)n1` [Example 1, (S)-2-(4-fluoro-2-methyl-phenoxy)-6-methyl-3-(piperidin-3-ylmethoxy)-pyridine fumaric acid]: the results for the pKi in assay [1] and in assay [2] were 7.55 and 6.24, respectively.
In the case of `Cc1ccc(OC[C@H]2CCCNC2)c(Oc2c(Cl)cccc2Cl)n1` [Example 47, (S)-2-(2,6-dichloro-phenoxy)-6-methyl-3-(piperidin-3-ylmethoxy)-pyridine hydrochloride], the pKi in assay [1] was 7.98; in assay [2], less than 5.04.
Regarding `Fc1ccc(Oc2cccc(F)c2OC[C@H]2CCCNC2)cc1F` [Example 97, (S)-3-[2-(3,4-difluoro-phenoxy)-6-fluoro-phenoxymethyl]-piperidine fumaric acid], the pKi in assay [1] was 9.00; in assay [2] it was 6.16.
The like results for `Cc1ccc(OC[C@H]2CCCNC2)c(Oc2ccc3c(c2)CCC3)n1` [Example 18, (S)-2-(2,3-dihydro-1H-inden-5-yloxy)-6-methyl-3-(piperidin-3-ylmethoxy)pyridine fumaric acid] were, in that order, 7.27 and 6.21.
In the case of `Cc1ccc(OC[C@H]2CCCNC2)c(Oc2cc(C)c(Cl)cc2C(C)C)n1` [Example 16, (S)-2-[4-chloro-5-methyl-2-(1-methyl-ethyl)-phenoxy]-6-methyl-3-(piperidin-3-ylmethoxy)-pyridine fumaric acid], the pKi in assay [1] was 5.59; in assay [2], 5.77.
The like results for `COc1cc(Cl)ccc1Oc1cc(Cl)ccc1OC[C@H]1CCCNC1` [Example 34, (S)-3-[4-chloro-2-(4-chloro-2-methoxy-phenoxy)-phenoxymethyl]-piperidine fumaric acid] were, in that order, 7.80 and 7.68.
With `Cc1ccc(OC[C@H]2CCCNC2)c(Oc2c(Cl)cc(F)cc2Cl)n1` [Example 48, (S)-2-(2,6-dichloro-4-fluoro-phenoxy)-6-methyl-3-(piperidin-3-ylmethoxy)-pyridine hydrochloride], the pKi was 7.21 in assay [1] and less than 5.04 in assay [2].
`CC(C)COc1cccc(F)c1OC[C@H]1CCCNC1` [Example 104, (S)-3-(2-fluoro-6-isobutoxy-phenoxymethyl)-piperidine fumaric acid] gave a pKi in assay [1] of 7.59.
